Measured values reported in ChEMBL document CHEMBL1153557, “Effect of calcineurin inhibitors on posaconazole blood levels as measured by the MVista microbiological assay” (Antimicrob Agents Chemother, 2008).
The source made the active and inactive calls. The calls are words filed in the database; no cut-off is given here.

Tests used:
Homo sapiens = organism: Homo sapiens; assay: Effect on […] level in plasma of transplant patient by MVista microbiological assay; assay type: functional
Kluyveromyces marxianus [1] = assay: Antifungal activity against Candida kefyr ATCC 46764 at 3 ug/ml after 14 to 18 hrs; assay type: functional; conditions: read-out: IZ
Kluyveromyces marxianus [2] = assay: Antifungal activity against Candida kefyr ATCC 46764 at 1.5 ug/ml after 14 to 18 hrs; assay type: functional; conditions: read-out: IZ
Kluyveromyces marxianus [3] = assay: Antifungal activity against Candida kefyr ATCC 46764 at 0.5 ug/ml after 14 to 18 hrs; assay type: functional; conditions: read-out: IZ
Kluyveromyces marxianus [4] = assay: Antifungal activity against Candida kefyr ATCC 46764 after 14 to 18 hrs; assay type: functional, organism-based

Compound	Activity (Homo sapiens) [ng/mL]	zone of inhibition at 3 µg/mL (Kluyveromyces marxianus [1]) [mm]	zone of inhibition at 1.5 µg/mL (Kluyveromyces marxianus [2]) [mm]	zone of inhibition at 0.5 µg/mL (Kluyveromyces marxianus [3]) [mm]	Activity (Kluyveromyces marxianus [4])
CO[C@H]1C[C@@H]2CC[C@@H](C)[C@@](O)(O2)C(=O)C(=O)N2CCCC[C@H]2C(=O)O[C@H]([C@H](C)C[C@@H]2CC[C@@H](O)[C@H](OC)C2)CC(=O)[C@H](C)/C=C(\C)[C@@H](O)[C@@H](OC)C(=O)[C@H](C)C[C@H](C)/C=C/C=C/C=C/1C [SIROLIMUS]	7.1				
CC[C@@H]([C@H](C)O)n1ncn(-c2ccc(N3CCN(c4ccc(OC[C@@H]5CO[C@@](Cn6cncn6)(c6ccc(F)cc6F)C5)cc4)CC3)cc2)c1=O [POSACONAZOLE]		23.2	20.6	16.5	
C/C=C/C[C@@H](C)[C@@H](O)[C@H]1C(=O)N[C@@H](CC)C(=O)N(C)CC(=O)N(C)[C@@H](CC(C)C)C(=O)N[C@@H](C(C)C)C(=O)N(C)[C@@H](CC(C)C)C(=O)N[C@@H](C)C(=O)N[C@H](C)C(=O)N(C)[C@@H](CC(C)C)C(=O)N(C)[C@@H](CC(C)C)C(=O)N(C)[C@@H](C(C)C)C(=O)N1C [CYCLOSPORINE]		23.3	20.5	15.5	
C=CC[C@@H]1/C=C(\C)C[C@H](C)C[C@H](OC)[C@H]2O[C@@](O)(C(=O)C(=O)N3CCCC[C@H]3C(=O)O[C@H](/C(C)=C/[C@@H]3CC[C@@H](O)[C@H](OC)C3)[C@H](C)[C@@H](O)CC1=O)[C@H](C)C[C@@H]2OC [TACROLIMUS ANHYDROUS]	4.2				inactive
